{"source": "patent US20080119527A1", "about": "“Composition for combating the localized hyperpigmentation of dark skin” (L'OREAL, priority 2006, published 2008)", "assay_type_in_all_cases": "cell-based", "key": {"[1]": {"test_system": "Normal human melanocyte/keratinocyte cocultures (NHM/NHK)", "assay": "Protein assay per well (toxicity estimate) in UV-irradiated NHM/NHK coculture", "procedure": "(§1) Normal human melanocyte/keratinocyte cocultures (NHM/NHK) undergo 1 irradiation with UV radiation, repeated daily for 4 days, in the presence or absence of the products to be evaluated. The melanin synthesis is quantified as previously by means of the incorporation of ^14C-thiouracil present in the culture medium. In parallel, a protein assay is performed in each well in order to normalize the melanin synthesis and to estimate the toxicity of the product.\n(§2) For each experimental condition, cell lysates are performed by rinsing the cells with a phosphate buffer (PBS). The proteins are precipitated using 5% trichloracetic acid (TCA) and washed in order to remove the free radioactivity. The proteins are incubated over a weekend at 37° C. using a proteinase K solution at 20 μl/ml in tris HCl-Triton-EDTA buffer.\n(§3) 5 μl of total extract are taken and transferred into a 96-well plate (Wallac). The proteins are assayed using the Protein Assay Reagent assay kit (Pierce). The amount of proteins per well (P) will be used to normalize the melanogenesis. The rest of the extract is filtered on a DEAE Filtermat filter (Wallac). After rinsing, the filter covered with “Meltilex” solid scintillant (Wallac) is transferred into a Costar counting plate. The radioactivity is counted using a Wallac counter and allows quantification of the melanogenesis (M) by measurement of the ^14C-thiouracil (ccpm) incorporated by the cells."}, "[2]": {"test_system": "coculture of normal human keratinocytes and melanocytes", "assay": "Melanogenesis modulation: 14C-thiouracil incorporation in keratinocyte/melanocyte coculture", "procedure": "Measurement of the melanogenesis-modulating effect of the copolymer of styrene/hydrolysed maleic anhydride (50/50) in sodium salt form, at 40% in water (SMA1000HNa® from the company Cray Valley), in the presence or absence of ascorbic acid, on a coculture of normal human keratinocytes and melanocytes.\nThe melanogenesis-modulating effect of the copolymer SMA1000HNa® was tested according to the method described in patent FR-A-2 734 825, and also in the article by R. Schmidt, P. Krien and M. Régnier, Anal. Biochem., 235(2), 113-18, 1996.\nBriefly, the method comprises the steps consisting in:\ncoculturing normal human keratinocytes/melanocytes in a medium containing the tested extract and also a labelled melanin precursor, in the present case C14-labelled thiouracil,\nlysing the cells containing the melanin with protein-degrading enzymes,\npassing the extract obtained through an anion-exchange filter with a pore diameter of less than or equal to 1 μm, and\nevaluating the amount of melanin bound by the filter by means of radioactive assay of the thiouracil.\n(§4) Specifically, 50 000 normal human keratinocytes and 17 000 normal human melanocytes are mixed together and inoculated per well in 96-well plates (Costar type) and cultured for three days in the differentiation medium. During the following three days, the culture medium is replaced daily with the defined test medium (containing the products to be evaluated, and also 3 μCi/ml of C14-labelled thiouracil).\nThe following controls are prepared: • control culture: test medium • positive melanogenesis-stimulating control: test medium+1 mM tyrosine; • 3 positive melanogenesis-inhibiting controls: test medium+, respectively, 500 μM of kojic acid; 100 μM of arbutin; […] of lucinol (2-butyl-1,3-benzenediol).\n(§5) After one night, the cells are rinsed in phosphate buffer (phosphate-buffered saline, PBS). The proteins are precipitated using 5% trichloracetic acid (TCA) and washed in order to remove the free radioactivity. The proteins are incubated overnight at 37° C. using a proteinase K solution at 20 μl/ml in tris-HCl-Triton EDTA buffer.\n(§6) 50 μl of total extract are taken and transferred into a 96-well plate (Wallac) and 150 μl of scintillation liquid (Optiphase “Supermix”) are added. The rest of the extract, i.e. 950 μl, is filtered through a DEAE Filtermat filter. After rinsing, the filter covered with the “Meltilex” solid scintillant is transferred into a counting plate. The radioactivity is counted using a Wallac counter. The results are expressed as a percentage of the control according to the formula: […]\n14CP is the mean of the disintegrations per minute (dpm) of 14C-thiouracil on 3 similar wells treated with a product (P);\n3HP is the mean of the dpm of the corresponding 3H-leucine;\n14CT is the mean of the dpm of 14 C-thiouracil on 3 similar control wells (T);\n3HT is the mean of the dpm of the corresponding 3H-leucine.\nThe ratio of the incorporation of thiouracil to the incorporation of leucine is calculated, to normalize the melanogenesis to the amount of proteins present in the well. This ratio reflects the melanogenesis modulation."}, "[3]": {"test_system": "coculture of normal human keratinocytes and melanocytes", "assay": "Tritiated leucine incorporation (proliferation and early cytotoxicity indicator) in the coculture", "description": "as §4\nThe total radioactivity incorporated into the proteins is estimated by the incorporation of tritiated leucine, taken as the proliferation indicator and the early cytotoxicity indicator. On the day before the sample is taken, 1 μCi/ml of tritiated leucine is added to the test medium. It is considered that a product is cytotoxic when the content of tritiated leucine falls by at least 30%.\nas §5, §6"}, "[4]": {"test_system": "Normal human melanocyte/keratinocyte cocultures (NHM/NHK)", "assay": "Photoinduced melanogenesis (UV irradiation) in NHM/NHK coculture, anti-pigmentation protocol", "description": "Measurement of the photoinduced melanogenesis-modulating effect of the polymer SMA1000HNa® in the presence or absence of ascorbic acid on a coculture of normal human keratinocytes and melanocytes (anti-pigmentation effect).\nas §1\nMore specifically, the melanocytes and keratinocytes are inoculated, respectively, at 80 000 and 250 000 cells per well in 24-well plates in the keratinocyte differentiation medium. The plates are incubated for 3 days at 37° C. before treatment.\nTo avoid photo-oxidation of one of its components, the culture medium is replaced at the time of irradiation with a solution of the products in PBS. The products are placed in contact with the cells for 15 minutes before irradiation.\nThe UV irradiation is performed using a sun simulator. The delivered dose is 7 J/cm^2. Irradiation source: Oriel Xénon 1000W simulator+dichroic filter+WG 320/1.5 mm.\nThe following controls are prepared:\nNon-irradiated control (quantification of the constitutive melanogenesis)\nBlank irradiation control\n2 positive controls of photoinduced melanogenesis inhibition: (100 μM arbutin; 1 μM lucinol).\nAfter irradiation, the PBS is removed and the cells are incubated in a semi-defined culture medium to which are added the products and the ^14C-thiouracil (1 μCi/ml). This treatment is repeated daily for 4 days.\nas §2, §3\nNormalized melanogenesis (NM)=M/P\nPhoto-induced melanogenesis (PIM)=NM (irradiated sample)−NM (non-irradiated sample)\nAnti-pigmenting effect of the product (%)=[[PIM(irradiated+treated sample)−PIM(irradiated sample)]/PIM(irradiated sample)]×100"}}}
{"smiles": "OC[C@H]1O[C@@H](Oc2ccc(O)cc2)[C@H](O)[C@@H](O)[C@@H]1O", "note": "[Arbutin, arbutin]", "values": [{"measurement": "Proteins (%/non-irradiated control)", "setting": "[1]; 100 μM + SSR", "result": "−15", "unit": "%"}, {"measurement": "14C ThioU. (%/Control)", "setting": "[2]; 100 μM", "result": "−49", "unit": "%"}, {"measurement": "14C ThioU./3H Leu.", "setting": "[2]; 100 μM", "result": "−44", "unit": "%"}, {"measurement": "3H Leu. (%/Control)", "setting": "[3]; 100 μM", "result": "−8", "unit": "%"}, {"measurement": "Anti-pigmenting effect of the product", "setting": "[4]; 100 μM + SSR", "result": "−111", "unit": "%"}, {"measurement": "PIM (%/non-irradiated control)", "setting": "[4]; 100 μM + SSR", "result": "−24", "unit": "%"}]}
{"smiles": "O=C1O[C@H]([C@@H](O)CO)C(O)=C1O", "note": "[vitamin C, ascorbic acid]", "values": [{"measurement": "Proteins (%/non-irradiated control)", "setting": "[1]; vitamin C 0.3 mM, UV irradiated", "result": "−12", "unit": "%"}, {"measurement": "Proteins (%/non-irradiated control)", "setting": "[1]; vitamin C 1 mM, UV irradiated", "result": "−19", "unit": "%"}, {"measurement": "Proteins (%/non-irradiated control)", "setting": "[1]; vitamin C 2 mM, UV irradiated", "result": "−19", "unit": "%"}, {"measurement": "Proteins (%/non-irradiated control)", "setting": "[1]; vitamin C 3 mM, UV irradiated", "result": "−22", "unit": "%"}, {"measurement": "IC50", "setting": "[2]; Homo sapiens, vitamin C alone, read-out: IC50 (14C ThioU./3H Leu.)", "result": "~230", "unit": "µM"}, {"measurement": "14C ThioU. (%/Control)", "setting": "[2]; vitamin C 0.1 mM", "result": "−14", "unit": "%"}, {"measurement": "14C ThioU./3H Leu.", "setting": "[2]; vitamin C 0.1 mM", "result": "−14", "unit": "%"}, {"measurement": "14C ThioU. (%/Control)", "setting": "[2]; vitamin C 0.3 mM", "result": "−69", "unit": "%"}, {"measurement": "14C ThioU./3H Leu.", "setting": "[2]; vitamin C 0.3 mM", "result": "−62", "unit": "%"}, {"measurement": "14C ThioU. (%/Control)", "setting": "[2]; vitamin C 0.4 mM", "result": "−79", "unit": "%"}, {"measurement": "14C ThioU./3H Leu.", "setting": "[2]; vitamin C 0.4 mM", "result": "−72", "unit": "%"}, {"measurement": "14C ThioU. (%/Control)", "setting": "[2]; vitamin C 0.6 mM", "result": "−76", "unit": "%"}, {"measurement": "14C ThioU./3H Leu.", "setting": "[2]; vitamin C 0.6 mM", "result": "−68", "unit": "%"}, {"measurement": "3H Leu. (%/Control)", "setting": "[3]; vitamin C 0.1 mM", "result": 0, "unit": "%"}, {"measurement": "3H Leu. (%/Control)", "setting": "[3]; vitamin C 0.3 mM", "result": "−17", "unit": "%"}, {"measurement": "3H Leu. (%/Control)", "setting": "[3]; vitamin C 0.4 mM", "result": "−23", "unit": "%"}, {"measurement": "3H Leu. (%/Control)", "setting": "[3]; vitamin C 0.6 mM", "result": "−23", "unit": "%"}, {"measurement": "IC50", "setting": "[4]; Homo sapiens, vitamin C alone, read-out: IC50 (anti-pigmenting effect)", "result": "~470", "unit": "µM"}, {"measurement": "Anti-pigmenting effect of the product", "setting": "[4]; vitamin C 0.3 mM", "result": "−40", "unit": "%"}, {"measurement": "PIM (%/non-irradiated control)", "setting": "[4]; vitamin C 0.3 mM", "result": 134, "unit": "%"}, {"measurement": "Anti-pigmenting effect of the product", "setting": "[4]; vitamin C 1 mM", "result": "−65", "unit": "%"}, {"measurement": "PIM (%/non-irradiated control)", "setting": "[4]; vitamin C 1 mM", "result": 78, "unit": "%"}, {"measurement": "Anti-pigmenting effect of the product", "setting": "[4]; vitamin C 2 mM", "result": "−90", "unit": "%"}, {"measurement": "PIM (%/non-irradiated control)", "setting": "[4]; vitamin C 2 mM", "result": 23, "unit": "%"}, {"measurement": "Anti-pigmenting effect of the product", "setting": "[4]; vitamin C 3 mM", "result": "−100", "unit": "%"}, {"measurement": "PIM (%/non-irradiated control)", "setting": "[4]; vitamin C 3 mM", "result": 0, "unit": "%"}]}
{"smiles": "N[C@@H](Cc1ccc(O)cc1)C(=O)O", "note": "[Tyrosine, tyrosine]", "values": [{"measurement": "14C ThioU. (%/Control)", "setting": "[2]; 1 mM", "result": 96, "unit": "%"}, {"measurement": "14C ThioU./3H Leu.", "setting": "[2]; 1 mM", "result": 85, "unit": "%"}, {"measurement": "3H Leu. (%/Control)", "setting": "[3]; 1 mM", "result": "+6%"}]}
{"smiles": "O=c1cc(CO)occ1O", "note": "[Kojic acid, kojic acid]", "values": [{"measurement": "14C ThioU. (%/Control)", "setting": "[2]; 500 μM", "result": "−56", "unit": "%"}, {"measurement": "14C ThioU./3H Leu.", "setting": "[2]; 500 μM", "result": "−52", "unit": "%"}, {"measurement": "3H Leu. (%/Control)", "setting": "[3]; 500 μM", "result": "−8", "unit": "%"}]}
